From ChEMBL document CHEMBL1129782, “Azole phenoxy hydroxyureas as selective and orally active inhibitors of 5-lipoxygenase” (J Med Chem, 1996)

What was measured:
Homo sapiens [1] = species: Homo sapiens; experiment: Inhibition of LTB4 biosynthesis at 1 uM, in calcium ionophore-stimulated human whole blood leukocyte (HBL) assay.; assay type: functional
Rattus norvegicus [2] = experiment: Ex vivo inhibitory activity at an peroral dose of 5 mg/Kg against LTB4 biosynthesis in rat blood, after pretreatment period of 6 hr; assay type: functional; details: po
[3] = target: T1, Polyunsaturated fatty acid 5-lipoxygenase (Rattus norvegicus) (UniProt P12527); experiment: Activity against LTB4 biosynthesis in the rat RPAR pleurisy model po (10 mg/kg); assay type: functional, organism-based
T1 sequence (whole entry): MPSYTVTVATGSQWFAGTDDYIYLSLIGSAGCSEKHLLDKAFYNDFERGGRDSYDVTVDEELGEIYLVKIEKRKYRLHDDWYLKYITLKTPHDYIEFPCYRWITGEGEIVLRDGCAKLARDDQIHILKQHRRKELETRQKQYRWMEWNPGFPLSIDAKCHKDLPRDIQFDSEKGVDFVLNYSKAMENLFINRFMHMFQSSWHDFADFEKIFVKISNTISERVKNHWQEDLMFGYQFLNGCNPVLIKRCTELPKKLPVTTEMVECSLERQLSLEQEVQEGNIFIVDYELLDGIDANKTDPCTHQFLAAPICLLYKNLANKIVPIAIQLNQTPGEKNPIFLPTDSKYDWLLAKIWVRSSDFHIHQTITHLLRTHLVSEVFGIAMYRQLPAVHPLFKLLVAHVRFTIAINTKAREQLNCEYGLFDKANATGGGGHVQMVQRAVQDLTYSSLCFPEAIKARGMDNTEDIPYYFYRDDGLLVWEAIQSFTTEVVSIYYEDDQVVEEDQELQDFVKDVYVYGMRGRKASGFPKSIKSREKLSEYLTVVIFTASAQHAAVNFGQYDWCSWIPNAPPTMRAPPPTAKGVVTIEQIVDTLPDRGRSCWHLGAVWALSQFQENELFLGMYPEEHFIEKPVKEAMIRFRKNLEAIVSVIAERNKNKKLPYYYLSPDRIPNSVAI

[4] = target: T1, Polyunsaturated fatty acid 5-lipoxygenase (Rattus norvegicus); experiment: Ex vivo inhibitory activity at an peroral dose of 10 mg/Kg against LTB4 biosynthesis in rat blood, after pretreatment period of 6 hr; assay type: functional
Rattus norvegicus [5] = experiment: Activity against LTB4 biosynthesis in the rat RPAR pleurisy model po (25 mg/kg); assay type: functional
[6] = target: T1, Polyunsaturated fatty acid 5-lipoxygenase (Rattus norvegicus); experiment: Ex vivo inhibitory activity at an peroral dose of 10 mg/Kg against LTB4 biosynthesis in rat blood, after pretreatment period of 3h; assay type: functional
Rattus norvegicus [7] = experiment: Ex vivo inhibitory activity at an peroral dose of 25 mg/Kg against LTB4 biosynthesis in rat blood, after pretreatment period of 3h; assay type: functional; details: po
Cavia porcellus [8] = experiment: Intravenous effective dose against antigen induced bronchoconstriction in the guinea pig; assay type: functional
Homo sapiens [9] = species: Homo sapiens; experiment: In vitro inhibitory concentration against LTB4 biosynthesis in calcium ionophore-stimulated human whole blood leukocyte (HBL) assay; assay type: functional
Cavia porcellus [10] = species: Cavia porcellus; experiment: Oral effective dose against antigen induced bronchoconstriction in the guinea pig; assay type: functional
Rattus norvegicus [11] = species: Rattus norvegicus; experiment: Ex vivo oral effective dose against LTB4 biosynthesis in rat blood, after pretreatment period of 3h; assay type: functional
Rattus norvegicus [12] = species: Rattus norvegicus; experiment: Oral effective dose against LTB4 biosynthesis in the rat RPAR pleurisy model; assay type: functional
Homo sapiens [13] = species: Homo sapiens; experiment: Compound at 10 uM was tested in vitro for the inhibition of LTB4 biosynthesis in calcium ionophore-stimulated human whole blood leukocyte (HBL) assay; assay type: functional
Cavia porcellus [14] = experiment: Intravenous effective dose against antigen induced bronchoconstriction in guinea pig; assay type: functional
Rattus norvegicus [15] = experiment: Ex vivo inhibitory activity at an peroral dose of 1 mg/Kg against LTB4 biosynthesis in rat blood, after pretreatment period of 6 hr; assay type: functional; details: po

Row | SMILES | inhibition [4] [%] | inhibition at 1 µM (Homo sapiens [1]) [%] | other results
1 | Cc1oc(-c2ccc(C(F)(F)F)cc2)nc1COc1cccc(CN(O)C(N)=O)c1 |  | 48 | inhibition in vivo at 5 mg/kg (Rattus norvegicus [2]): 55%; inhibition [3]: 59%
2 | NC(=O)N(O)Cc1ccc(OCCc2noc(-c3ccccc3)n2)cc1 |  | 70 | inhibition in vivo at 5 mg/kg (Rattus norvegicus [2]): 59%; Inhibition (Rattus norvegicus [5]): 19%
3 | Cc1oc(-c2ccccc2)nc1CCOc1ccc(CN(O)C(N)=O)cc1 |  | 55 | inhibition [6]: 0%; inhibition in vivo at 25 mg/kg (Rattus norvegicus [7]): 79%; inhibition [3]: 69%
4 | Cc1oc(-c2ccc(C(F)(F)F)cc2)nc1CCOc1ccc(CN(O)C(N)=O)cc1F |  | 36 | 
5 | CCCCCCc1nc(CCOc2ccc(CN(O)C(N)=O)cc2)c(C)o1 |  | 44 | 
6 | NC(=O)N(O)Cc1ccc(OCCc2csc(-c3ccccc3)n2)cc1 |  | 19 | 
7 | CC(c1cc2ccccc2s1)N(O)C(N)=O (configuration not stated) [ZILEUTON] |  |  | ED50 (Cavia porcellus [8]): 19 mg/kg; IC50 (Homo sapiens [9]): 3 µM; ED50 (Cavia porcellus [10]): 46 mg/kg; ED50 (Rattus norvegicus [11]): 10.2 mg/kg; ED50 (Rattus norvegicus [12]): 7.8 mg/kg
8 | NC(=O)N(O)Cc1cccc(OCc2csc(-c3ccc(Cl)cc3)n2)c1 | 63 | 68 | inhibition [3]: 0%
9 | COc1ccc(-c2nc(COc3cccc(CN(O)C(N)=O)c3)cs2)cc1 | 0 | 50 | 
10 | COc1ccc(-c2nc(CCOc3ccc(CN(O)C(N)=O)cc3)c(C)o2)cc1 |  | 57 | inhibition in vivo at 25 mg/kg (Rattus norvegicus [7]): 32%; Inhibition (Rattus norvegicus [5]): 38%
11 | Cc1ccc(-c2nc(CCOc3ccc(CN(O)C(N)=O)cc3)c(C)o2)cc1 |  | 40 | inhibition in vivo at 5 mg/kg (Rattus norvegicus [2]): 0%; Inhibition (Rattus norvegicus [5]): 48%
12 | NC(=O)N(O)Cc1cccc(OCc2csc(-c3ccccc3)n2)c1 | 80 | 66 | ED50 (Cavia porcellus [8]): 6 mg/kg; inhibition [3]: 40%
13 | Cc1oc(-c2ccc(C(F)(F)F)cc2)nc1COc1ccc(CN(O)C(N)=O)cc1 |  | 34 | inhibition in vivo at 5 mg/kg (Rattus norvegicus [2]): 69%; inhibition [3]: 45%
14 | Cc1oc(-c2ccccc2)nc1CCOc1cccc(C(C)N(O)C(N)=O)c1 (configuration not stated) |  | 34 | 
15 | NC(=O)N(O)Cc1ccc(OCc2csc(-c3ccc(Cl)cc3)n2)cc1 | 0 | 71 | 
16 | NC(=O)N(O)Cc1ccc(OCc2csc(-c3ccccc3)n2)cc1 | 67 | 44 | 
17 | NC(=S)N(O)Cc1cccc(OCc2coc(-c3ccc(F)cc3)n2)c1 | 0 | 61 | 
18 | Cc1oc(-c2ccccc2)nc1COc1cccc(C(C)N(O)C(N)=O)c1 (configuration not stated) |  | 10 | inhibition at 10 µM (Homo sapiens [13]): 80%
19 | Cc1oc(-c2cccc3ccccc23)nc1CCOc1ccc(CN(O)C(N)=O)cc1 |  | 42 | 
20 | Cc1oc(-c2ccco2)nc1CCOc1ccc(CN(O)C(N)=O)cc1 |  | 64 | inhibition [6]: 41%
21 | COc1cc(CN(O)C(N)=O)ccc1OCc1nc(-c2ccccc2)oc1C |  | 19 | inhibition at 10 µM (Homo sapiens [13]): 81%

Row | SMILES | inhibition [4] [%] | inhibition at 1 µM (Homo sapiens [1]) [%] | other results
22 | Cc1oc(-c2ccc(F)cc2)nc1COc1cccc(CN(O)C(N)=O)c1 |  | 74 | inhibition [3]: 37%; ED50 (Cavia porcellus [14]): 5 mg/kg
23 | COc1cc(CN(O)C(N)=O)cc(OCc2nc(-c3ccc(C(F)(F)F)cc3)oc2C)c1 |  | 0 | inhibition at 10 µM (Homo sapiens [13]): 59%
24 | Cc1oc(-c2cccc(F)c2)nc1CCOc1ccc(CN(O)C(N)=O)cc1 |  | 63 | inhibition [6]: 80%
25 | NC(=S)N(O)Cc1ccc(OCc2csc(-c3ccc(Cl)cc3)n2)cc1 |  | 57 | inhibition in vivo at 5 mg/kg (Rattus norvegicus [2]): 0%
26 | Cc1oc(-c2ccccc2)nc1CCOc1cccc(CN(O)C(N)=O)c1 |  | 51 | inhibition [6]: 0%
27 | Cc1oc(-c2ccccc2)nc1CCOc1ccc(CN(O)C(N)=O)cc1F |  | 71 | inhibition [6]: 52%; Inhibition (Rattus norvegicus [5]): 58%
28 | NC(=O)N(O)Cc1ccc(OCCc2csc(-c3ccc(C(F)(F)F)cc3)n2)cc1 |  | 57 | inhibition in vivo at 5 mg/kg (Rattus norvegicus [2]): 0%
29 | Cc1oc(-c2ccccc2)nc1CCOc1ccc(C(C)N(O)C(N)=O)cc1 (configuration not stated) |  | 0 | inhibition in vivo at 25 mg/kg (Rattus norvegicus [7]): 57%; inhibition at 10 µM (Homo sapiens [13]): 60%
30 | Cc1oc(-c2cccs2)nc1CCOc1ccc(CN(O)C(N)=O)cc1 |  | 64 | inhibition [6]: 24%
31 | Cc1oc(-c2ccccc2)nc1COc1cc(F)cc(CN(O)C(N)=O)c1 |  | 70 | inhibition in vivo at 5 mg/kg (Rattus norvegicus [2]): 52%; inhibition [3]: 16%
32 | COc1ccc(-c2nc(COc3ccc(CN(O)C(N)=O)cc3)cs2)cc1 | 69 | 56 | 
33 | Cc1oc(-c2ccccc2)nc1COc1ccc(CN(O)C(N)=O)cc1Cl |  | 31 | inhibition [6]: 69%
34 | Cc1oc(-c2cc(C(F)(F)F)cc(C(F)(F)F)c2)nc1COc1cccc(CN(O)C(N)=O)c1 |  | 15 | inhibition at 10 µM (Homo sapiens [13]): 57%
35 | NC(=O)N(O)Cc1ccc(OCCc2coc(-c3ccccc3)n2)cc1 |  | 47 | inhibition in vivo at 5 mg/kg (Rattus norvegicus [2]): 0%
36 | Cc1oc(-c2ccccc2F)nc1CCOc1ccc(CN(O)C(N)=O)cc1 |  | 54 | inhibition [6]: 71%
37 | Cc1oc(-c2ccccc2)nc1COc1ccc(C(C)N(O)C(N)=O)cc1 (configuration not stated) |  | 17 | inhibition at 10 µM (Homo sapiens [13]): 57%
38 | Cc1oc(-c2ccc(C(F)(F)F)cc2)nc1COc1cc(F)cc(CN(O)C(N)=O)c1 |  | 15 | inhibition at 10 µM (Homo sapiens [13]): 85%
39 | Cc1oc(-c2ccc(C(F)(F)F)cc2)nc1CCOc1ccc(CN(O)C(N)=O)cc1 |  |  | inhibition [6]: 67%; inhibition in vivo at 1 mg/kg (Rattus norvegicus [15]): 57%; ED50 (Rattus norvegicus [12]): 5 mg/kg
40 | Cc1oc(-c2ccc(F)cc2)nc1CCOc1ccc(CN(O)C(N)=O)cc1 |  | 70 | inhibition [6]: 66%
41 | Cc1oc(-c2ccccc2)nc1COc1ccc(CN(O)C(N)=O)cc1F |  | 47 | inhibition [6]: 66%; Inhibition (Rattus norvegicus [5]): 27%
42 | NC(=O)N(O)Cc1ccc(OCc2coc(-c3ccccc3)n2)cc1 |  | 58 | inhibition in vivo at 5 mg/kg (Rattus norvegicus [2]): 60%; inhibition [3]: 60%

The next lines start with results.

Row | inhibition [4] [%] | SMILES | inhibition at 1 µM (Homo sapiens [1]) [%] | other results
43 | 0 | NC(=O)N(O)Cc1ccc(OCc2csc(-c3ccc(C(F)(F)F)cc3)n2)cc1 | 56 | 
44 | 0 | NC(=O)N(O)Cc1cccc(OCCc2csc(-c3ccc(C(F)(F)F)cc3)n2)c1 | 30 | 
45 | 0 | Cc1oc(-c2ccc(SC(F)(F)F)cc2)nc1CCOc1ccc(CN(O)C(N)=O)cc1 | 50 | 
46 | 0 | Cc1oc(-c2ccccc2)nc1COc1cccc(CN(O)C(N)=O)c1 | 52 | inhibition in vivo at 25 mg/kg (Rattus norvegicus [7]): 78%; inhibition [3]: 33%; Inhibition (Rattus norvegicus [5]): 79%
47 | 38 | Cc1oc(-c2ccc(Cl)cc2)nc1COc1cccc(CN(O)C(N)=O)c1 | 77 | inhibition [3]: 47%
48 | 0 | Cc1oc(-c2cccc(C(F)(F)F)c2)nc1COc1cccc(CN(O)C(N)=O)c1 | 51 | 
49 | 68 | NC(=O)N(O)Cc1ccc(OCc2coc(-c3ccc(C(F)(F)F)cc3)n2)cc1 | 32 | 
50 | 0 | Cc1oc(-c2ccccc2)nc1COc1ccc(CN(O)C(N)=O)cc1 | 50 | inhibition [6]: 84%; inhibition [3]: 36%; Inhibition (Rattus norvegicus [5]): 69%
